From US9388126B2, “Sigma receptor ligands and methods of modulating cellular protein homeostasis using same” (Drexel University, priority 2012, dated 2016)

Columns and labels:
Type in all cases: cell-based, human
[1] = system: MCF-7, T47D, DU145, PC3, HepG2 and Panc1 cells; experiment: LC3BII immunoblot in a range of tumor cell lines; conditions: 10 μM, 24 hours
Description: FIG. 36, comprising FIGS. 36A-36C, illustrates Sigma1 antagonist associated autophagy. FIG. 36A, comprises representative images of translocation of GFP-tagged LC3 (LC3-GFP) into autophagosomes in MDA-MB-468 (MDA468) breast adenocarcinoma cells. Only antagonist-treated MDA-MB-468 cells presented LC3-GFP translocation to autophagosomes: […]. […] The images are representative of at least 80 fields for each treatment condition. FIG. 36B is an image of an immunoblot illustrating the finding that formation of GFP-LC3II the formation of GFP-LC3 positive punctae, an indicator of autophagosome formation. Protein extracts from MDA-MB-468 cells stably transfected with and expressing GFP-LC3, treated for 24 hours with 10 μM of the indicated Sigma1 ligand. FIG. 36C comprises images of immunoblots illustrating that increased levels of the microtubule associated protein light chain 3BII isoform (LC3BII) is another broadly used indicator of activated autophagy. […] Legend: MCF-7 (breast adenocarcinoma), T47D (breast adenocarcinoma), DU145 (prostate adenocarcinoma), PC3 (prostate adenocarcinoma), HepG2 (hepatocellular carcinoma), and Panc1 (pancreatic adenocarcinoma).

[2] = system: MDA-MB-468 and MDA-MB-231 breast adenocarcinoma cells; experiment: Poly-ubiquitylated protein immunoblot, breast adenocarcinoma cells; conditions: 10 μM, up to 24 hours, MDA-MB-468
Description: FIG. 34A is an image of an immunoblot of MDA-MB-468 breast adenocarcinoma cells treated with 10 μM Sigma1 antagonist (IPAG) for the indicated times, up to 24 hours. Total cell lysates were resolved by SDS-PAGE and immunoblotted with a poly-ubiquitin antibody P4D1. FIG. 34B is an image of an immunoblot of HepG2 hepatocellular carcinoma cells treated for 20 hours with 10 μM of indicated Sigma1 ligands.
FIG. 59, comprising FIGS. 59A-59B, illustrates the finding that the novel Sigma1 ligand JMS-51-58 modulated the ubiquitin proteasome system. FIG. 59A is an image of an immunoblot evaluating the levels of poly-ubiquitylated proteins of MDA-MB-468 breast adenocarcinoma treated for 16 hours with 10 μM of JMS-51-58. FIG. 59B is an image of an immunoblot evaluating the levels of poly-ubiquitylated proteins of MDA-MB-231 breast adenocarcinoma cells treated for 16 hours with 10 μM of JMS-51-58. The levels of poly-ubiquitylated proteins were evaluated by immunoblot.

[3] = system: MCF-7, T47D and MDA-MB-468 cells; experiment: Cell proliferation by Alamar blue reduction, breast adenocarcinoma cultures; conditions: after 4 days of treatment, six drug concentrations
Description: In vitro cell proliferation was quantitated by Alamar blue reduction. The anti-proliferative effects of six drug concentrations of the indicated drugs were quantitated after 4 days of treatment.

MDA-MB-468 cells = experiment: Cell death by trypan blue exclusion
Description: Trypan blue exclusion and propidium iodide staining were used to quantify general cell death and the presence of apoptotic cell death was confirmed by immunoblot. The percentage of dead cells in a given population was determined by quantifying the number of trypan blue positive (dead) cells and dividing by the total number of trypan blue positive and negative cells.

[4] = system: MDA-MB-468 (GFP-LC3) cells; experiment: GFP-LC3 punctae (autophagosome formation) microscopy assay; conditions: for punctae per cell / mean number of punctae per cell: 24 hours; for autophagosomes per cell / GFP-LC3 punctae per cell: 10 μM for 20 hours
Description: The human GFP-LC3 expression plasmid, pEGFP-LC3 (a gift from Drs. Grazia Ambrosini and Gary K. Schwartz, MSKCC), was stably transfected into MDA-MB-468 and selected with 0.5 mg/ml G418 sulfate. Stable populations were generated and compared to parental MDA-MB-468 for Sigma1 expression and autophagic and growth inhibitory response to Sigma ligands. GFP-LC3 translocation (punctae formation) was assessed by microscopy in MDA-MB-468 (GFP-LC3) stable cell populations. For microscopy-based experiments, cells were seeded onto Lab-Tek II glass chamber slides (Nalge Nunc International). […] Images of GFP-LC3 punctae were acquired with a Zeiss Axioplan 2 Imaging widefield microscope using Axiovision LE software. Punctae were counted using the spot quantitation program in the Fluoro-Chem software package (Alpha Innotech) and confirmed in parallel by manual counting. Autophagosome formation in MDAMB-468 (GFP-LC3) cells was quantitated as the mean number of GFP-LC3 punctae per GFP positive cell.
Initially, an established immunoblot-based assay to detect microtubule associated protein light chain 3 (LC3) lipidation was used to test for the activation of autophagy. […] Since transient transfections can produce spurious GFP-LC3 aggregates, stable GFP-LC3 transfected populations of MDA-MB-468 (GFP-LC3) were generated. […]

With `N=C(Nc1ccc(I)cc1)NC1C2CC3CC(C2)CC1C3` (stereo not drawn) [IPAG, 1-(4-iodophenyl)-3-(2-adamantyl)guanidine] the LC3BII levels [1] was “salient induction of LC3BII levels”, the “levels of ubiquitylated proteins” value [2] was “increased level of ubiquitylated proteins” and the “inhibition of cell proliferation” value [3] was “inhibited cell proliferation with comparable potencies in all cell lines”. For the same molecule, the “dead cells per well” value (MDA-MB-468 cells; 10 μM, 24 hours, with 3-MA (5 mM) or siRNA knockdown of Beclin1) was “over 33%”, the “proportion of dead cells (apoptotic cell death)” value (MDA-MB-468 cells; 10 μM, 48 hours of continuous treatment) was 30±2% and the “proportion of dead cells” value (MDA-MB-468 cells; 24 hours, IRE1α knockdown) was 47±8%. The “dead cells per well” value (MDA-MB-468 cells; 24 hours, combined treatment with IPAG and 3-MA) was 24±5%, the “proportion of dead cells” value (MDA-MB-468 cells; 24 hours, control siRNA transfected cells) was 9±4% and the “proportion of dead cells” value (MDA-MB-468 cells; by 72 hours) was > 75%. The “dead cells per well” value (MDA-MB-468 cells; knockdown of ATF4) was 30±9%, the punctae per cell ([4]; 10 μM IPAG alone, 3-MA experiment) was 23±2 punctae per cell and the punctae per cell ([4]; 10 μM IPAG with addition of 3-MA (5 mM)) was 12±1 punctae per cell. The autophagosomes per cell ([4]; ATF4 knocked down) was 5±1 autophagosomes per cell, the autophagosomes per cell ([4]; IRE1α knocked down) was 9±2 autophagosomes per cell and the “GFP-LC3 punctae per cell” value ([4]; Sigma1-knockdown cells) was 10±2 punctae per cell. For the same molecule, the “GFP-LC3 punctae per cell” value ([4]; control siRNA transfected cells) was 28±4 punctae per cell, the autophagosomes per cell ([4]; no UPR knockdown) was 24±2 autophagosomes per cell and the “mean number of punctae per cell” value ([4]; 10 μM, knockdown of Beclin1) was 6±1 punctae per cell. For the same molecule, the “mean number of punctae per cell” value ([4]; 10 μM, without Beclin1 knockdown) was 28±3 punctae per cell, the “time at which significant formation of autophagosomes was detected” value ([4]; 10 μM, GFP-LC3 punctae and LC3II immunoblot) was 6 to 12 h and the EC50 ([4]; Homo sapiens, MDA-MB-468, 24 hours of treatment, read-out: potency (EC50±S.E.M.) of autophagosome formation (GFP-LC3 punctae)) was 9 ± 3 µM. For the same molecule, the autophagosome formation ([4]; IPAG alone, JNK inhibitor experiment) was 23±2, the autophagosome formation ([4]; IPAG and JNK inhibitor SP600125) was 7±1 and the “concentration at which precipitous cell death occurred” value ([4]; following 24 hours of treatment) was 40 µM.
